Test results taken from PubChem BioAssay AID651592 (Sanford-Burnham Center for Chemical Genomics, 2012).

What was measured:
[1] = target: Interleukin-8 (Homo sapiens) (UniProt P10145); experiment: inhibitors of NFkB activation in CF airway cells, SAR follow-up, KKLEB cells, panel, IL8 HTRF, NFkB-GFP (AID 651592); settings: PAF/TNFa-induced NFkB-GFP / IL8 HTRF;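 also: immortalized cystic fibrosis airway epithelial KKLEB cells with an NF-kB GFP reporter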
[2] = as above; settings: PAF/TNFa-induced NFkB-GFP / IL8 HTRF, CF-PAF assay
IL8 = experiment: as above; settings: PAF/TNFa-induced NFkB-GFP / IL8 HTRF, mean of runs, mean IC50 across panel replicates
[3] = mean of runs, mean IC50 across panel replicates

Interleukin-8 (Homo sapiens), sequence (P10145 whole entry, looked up): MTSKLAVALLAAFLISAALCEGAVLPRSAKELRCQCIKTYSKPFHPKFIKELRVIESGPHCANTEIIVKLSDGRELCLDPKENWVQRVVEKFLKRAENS

Structure (SMILES): O=C(Nc1ccc(N2CCN(C(=O)c3ccc(F)cc3)CC2)cc1)c1cccnc1
- IC50 ([1]; IL8, PAF-induced, run 1): > 66 µM
- IC50 ([1]; IL8, PAF-induced, run 2): > 66 µM
- IC50 ([1]; IL8, PAF-induced, run 3): > 66 µM
- IC50 ([1]; IL8, PAF-induced, run 4): > 66 µM
- IC50 ([1]; IL8, PAF-induced, run 5): > 66 µM
- IC50 ([1]; IL8, PAF-induced, run 6): > 66 µM
- IC50 ([1]; IL8, TNFa-induced, run 1): > 66 µM
- IC50 ([1]; IL8, TNFa-induced, run 2): > 66 µM
- IC50 ([1]; IL8, TNFa-induced, run 3): > 66 µM
- IC50 ([1]; IL8, TNFa-induced, run 4): > 66 µM
- IC50 ([1]; IL8, TNFa-induced, run 5): > 66 µM
- IC50 ([1]; IL8, TNFa-induced, run 6): > 66 µM
- IC50 [2, 3]: 41.4 µM
- IC50 ([2]; run 1): 38.3 µM
- IC50 ([2]; run 2): 39.4 µM
- IC50 ([2]; run 3): 46.4 µM
- IC50 ([2]; run 4): > 66 µM
- IC50 ([2]; run 5): > 66 µM
- IC50 ([2]; run 6): > 66 µM
- IC50 (IL8; PAF-induced): > 66 µM
- IC50 (IL8; TNFa-induced): > 66 µM

Structure (SMILES): O=C(Nc1ccc(N2CCN(C(=O)c3ccccc3F)CC2)cc1)c1ccccn1
- IC50 ([1]; IL8, PAF-induced, run 1): > 66 µM
- IC50 ([1]; IL8, PAF-induced, run 2): > 66 µM
- IC50 ([1]; IL8, PAF-induced, run 3): > 66 µM
- IC50 ([1]; IL8, PAF-induced, run 4): > 66 µM
- IC50 ([1]; IL8, PAF-induced, run 5): > 66 µM
- IC50 ([1]; IL8, PAF-induced, run 6): > 66 µM
- IC50 ([1]; IL8, TNFa-induced, run 1): > 66 µM
- IC50 ([1]; IL8, TNFa-induced, run 2): > 66 µM
- IC50 ([1]; IL8, TNFa-induced, run 3): > 66 µM
- IC50 ([1]; IL8, TNFa-induced, run 4): > 66 µM
- IC50 ([1]; IL8, TNFa-induced, run 5): > 66 µM
- IC50 ([1]; IL8, TNFa-induced, run 6): > 66 µM
- IC50 [2, 3]: 45.7 µM
- IC50 ([2]; run 1): 32.5 µM
- IC50 ([2]; run 2): 40.3 µM
- IC50 ([2]; run 3): 64.3 µM
- IC50 ([2]; run 4): > 66 µM
- IC50 ([2]; run 5): > 66 µM
- IC50 ([2]; run 6): > 66 µM
- IC50 (IL8; PAF-induced): > 66 µM
- IC50 (IL8; TNFa-induced): > 66 µM

Structure (SMILES): O=C(Nc1ccc(N2CCN(C(=O)c3ccccc3F)CC2)cc1)c1cccnc1
- IC50 ([1]; IL8, PAF-induced, run 1): > 66 µM
- IC50 ([1]; IL8, PAF-induced, run 2): > 66 µM
- IC50 ([1]; IL8, PAF-induced, run 3): > 66 µM
- IC50 ([1]; IL8, PAF-induced, run 4): > 66 µM
- IC50 ([1]; IL8, PAF-induced, run 5): > 66 µM
- IC50 ([1]; IL8, PAF-induced, run 6): 37.8 µM
- IC50 ([1]; IL8, TNFa-induced, run 1): > 66 µM
- IC50 ([1]; IL8, TNFa-induced, run 2): > 66 µM
- IC50 ([1]; IL8, TNFa-induced, run 3): > 66 µM
- IC50 ([1]; IL8, TNFa-induced, run 4): > 66 µM
- IC50 ([1]; IL8, TNFa-induced, run 5): > 66 µM
- IC50 ([1]; IL8, TNFa-induced, run 6): > 66 µM
- IC50 [2, 3]: 29 µM
- IC50 ([2]; run 1): 6.4 µM
- IC50 ([2]; run 2): 8.28 µM
- IC50 ([2]; run 3): 8.83 µM
- IC50 ([2]; run 4): > 66 µM
- IC50 ([2]; run 5): > 66 µM
- IC50 ([2]; run 6): 18.3 µM
- IC50 (IL8; PAF-induced): 61.3 µM
- IC50 (IL8; TNFa-induced): > 66 µM

Structure (SMILES): O=C(Nc1ccc(N2CCN(C(=O)c3ccccc3)CC2)cc1)c1cccnc1
- IC50 ([1]; IL8, PAF-induced, run 1): > 66 µM
- IC50 ([1]; IL8, PAF-induced, run 2): > 66 µM
- IC50 ([1]; IL8, PAF-induced, run 3): 7.51 µM
- IC50 ([1]; IL8, PAF-induced, run 4): > 66 µM
- IC50 ([1]; IL8, PAF-induced, run 5): > 66 µM
- IC50 ([1]; IL8, PAF-induced, run 6): 36.4 µM
- IC50 ([1]; IL8, TNFa-induced, run 1): > 66 µM
- IC50 ([1]; IL8, TNFa-induced, run 2): > 66 µM
- IC50 ([1]; IL8, TNFa-induced, run 3): > 66 µM
- IC50 ([1]; IL8, TNFa-induced, run 4): > 66 µM
- IC50 ([1]; IL8, TNFa-induced, run 5): > 66 µM
- IC50 ([1]; IL8, TNFa-induced, run 6): > 66 µM
- IC50 [2, 3]: 42.9 µM
- IC50 ([2]; run 1): 17 µM
- IC50 ([2]; run 2): 20.7 µM
- IC50 ([2]; run 3): 21.9 µM
- IC50 ([2]; run 4): > 66 µM
- IC50 ([2]; run 5): > 66 µM
- IC50 ([2]; run 6): > 66 µM
- IC50 (IL8; PAF-induced): 40.3 µM
- IC50 (IL8; TNFa-induced): > 66 µM

Structure (SMILES): O=C(Nc1ccc(N2CCN(C(=O)c3ccccc3F)CC2)cc1)c1cc(Br)cc(Br)c1
- IC50 ([1]; IL8, PAF-induced, run 1): > 66 µM
- IC50 ([1]; IL8, PAF-induced, run 2): > 66 µM
- IC50 ([1]; IL8, PAF-induced, run 3): > 66 µM
- IC50 ([1]; IL8, PAF-induced, run 4): > 66 µM
- IC50 ([1]; IL8, PAF-induced, run 5): > 66 µM
- IC50 ([1]; IL8, PAF-induced, run 6): > 66 µM
- IC50 ([1]; IL8, TNFa-induced, run 1): > 66 µM
- IC50 ([1]; IL8, TNFa-induced, run 2): > 66 µM
- IC50 ([1]; IL8, TNFa-induced, run 3): > 66 µM
- IC50 ([1]; IL8, TNFa-induced, run 4): > 66 µM
- IC50 ([1]; IL8, TNFa-induced, run 5): > 66 µM
- IC50 ([1]; IL8, TNFa-induced, run 6): > 66 µM
- IC50 [2, 3]: > 66 µM
- IC50 ([2]; run 1): > 66 µM
- IC50 ([2]; run 2): > 66 µM
- IC50 ([2]; run 3): > 66 µM
- IC50 ([2]; run 4): > 66 µM
- IC50 ([2]; run 5): > 66 µM
- IC50 ([2]; run 6): > 66 µM
- IC50 (IL8; PAF-induced): > 66 µM
- IC50 (IL8; TNFa-induced): > 66 µM

Structure (SMILES): O=C(Nc1ccc(N2CCN(C(=O)c3ccc(F)cc3)CC2)cc1)c1ccncc1
- IC50 ([1]; IL8, PAF-induced, run 1): > 66 µM
- IC50 ([1]; IL8, PAF-induced, run 2): > 66 µM
- IC50 ([1]; IL8, PAF-induced, run 3): > 66 µM
- IC50 ([1]; IL8, PAF-induced, run 4): > 66 µM
- IC50 ([1]; IL8, PAF-induced, run 5): > 66 µM
- IC50 ([1]; IL8, PAF-induced, run 6): > 66 µM
- IC50 ([1]; IL8, TNFa-induced, run 1): > 66 µM
- IC50 ([1]; IL8, TNFa-induced, run 2): > 66 µM
- IC50 ([1]; IL8, TNFa-induced, run 3): > 66 µM
- IC50 ([1]; IL8, TNFa-induced, run 4): > 66 µM
- IC50 ([1]; IL8, TNFa-induced, run 5): > 66 µM
- IC50 ([1]; IL8, TNFa-induced, run 6): > 66 µM
- IC50 [2, 3]: > 66 µM
- IC50 ([2]; run 1): > 66 µM
- IC50 ([2]; run 2): > 66 µM
- IC50 ([2]; run 3): > 66 µM
- IC50 ([2]; run 4): > 66 µM
- IC50 ([2]; run 5): > 66 µM
- IC50 ([2]; run 6): > 66 µM
- IC50 (IL8; PAF-induced): > 66 µM
- IC50 (IL8; TNFa-induced): > 66 µM
